Laboratory results published in a compilation of properties of binary mixtures (doi:10.1021/acs.jced.9b00875).

Assay: xn = mol fraction of the nth substance listed
Conditions: 101 kPa

CNC(C)=O + CCCC[n+]1ccn(C)c1.F[B-](F)(F)F
Conditions | speed of sound [m/s] | viscosity [mPa·s]
293.15 K, x2 = 0 | 1406.2 | 5.56
293.15 K, x2 = 0.2042 | 1479.3 | 8.7
293.15 K, x2 = 0.27 | 1497.8 | 10.6
293.15 K, x2 = 0.3564 | 1517.3 | 14.28
293.15 K, x2 = 0.4992 | 1540.3 | 24.5
293.15 K, x2 = 0.5552 | 1546.9 | 30.2
293.15 K, x2 = 0.6389 | 1555.3 | 41
293.15 K, x2 = 0.714 | 1561.4 | 53.3
293.15 K, x2 = 0.8495 | 1569.8 | 82.6
293.15 K, x2 = 0.9302 | 1573.9 | 104.9
298.15 K, x2 = 0 | 1385.3 | 4.77
298.15 K, x2 = 0.1409 | 1440 | 6.18
298.15 K, x2 = 0.27 | 1480.6 | 8.7
298.15 K, x2 = 0.3564 | 1501.1 | 11.64
298.15 K, x2 = 0.4343 | 1516 | 15.46
298.15 K, x2 = 0.5552 | 1532.7 | 24.2
298.15 K, x2 = 0.6389 | 1542 | 32.6
298.15 K, x2 = 0.714 | 1548.6 | 42.1
298.15 K, x2 = 0.8495 | 1558 | 64.5
298.15 K, x2 = 0.9302 | 1562.5 | 81.6
303.15 K, x2 = 0 | 1366.3 | 4.09
303.15 K, x2 = 0.0711 | 1395.9 | 4.92
303.15 K, x2 = 0.2042 | 1444.8 | 6.38
303.15 K, x2 = 0.27 | 1464.5 | 7.32
303.15 K, x2 = 0.3564 | 1486 | 9.13
303.15 K, x2 = 0.4343 | 1501.4 | 11.57
303.15 K, x2 = 0.4992 | 1511.8 | 14.39
303.15 K, x2 = 0.5552 | 1519.2 | 17.5
303.15 K, x2 = 0.6389 | 1529.2 | 23.6
303.15 K, x2 = 0.714 | 1536.2 | 30.7
303.15 K, x2 = 0.7774 | 1541.2 | 38.1
303.15 K, x2 = 0.8495 | 1546.2 | 48.2
303.15 K, x2 = 0.9302 | 1551 | 62
308.15 K, x2 = 0.0711 | 1380.7 | 4.25
308.15 K, x2 = 0.1409 | 1408.3 | 4.86
308.15 K, x2 = 0.2042 | 1430.4 | 5.48
308.15 K, x2 = 0.27 | 1450.3 | 6.31
308.15 K, x2 = 0.3564 | 1472.3 | 7.85
308.15 K, x2 = 0.4343 | 1488.2 | 9.86
308.15 K, x2 = 0.4992 | 1498.9 | 12.11
308.15 K, x2 = 0.5552 | 1506.5 | 14.56
308.15 K, x2 = 0.6389 | 1516.8 | 19.2
308.15 K, x2 = 0.7774 | 1529.2 | 30.2
308.15 K, x2 = 0.8495 | 1534.1 | 37.8
308.15 K, x2 = 0.9302 | 1539.1 | 48
313.15 K, x2 = 0 | 1336.4 | 3.08
313.15 K, x2 = 0.0711 | 1367.7 | 3.76
313.15 K, x2 = 0.1409 | 1395.4 | 4.34
313.15 K, x2 = 0.2042 | 1417.6 | 4.86
313.15 K, x2 = 0.27 | 1437.6 | 5.5
313.15 K, x2 = 0.3564 | 1459.7 | 6.64
313.15 K, x2 = 0.4343 | 1475.8 | 8.12
313.15 K, x2 = 0.5552 | 1494.8 | 11.64
313.15 K, x2 = 0.6389 | 1505 | 15.21
313.15 K, x2 = 0.714 | 1512 | 19.4
313.15 K, x2 = 0.7774 | 1517.5 | 23.7
313.15 K, x2 = 0.8495 | 1522.3 | 29.7
313.15 K, x2 = 0.9302 | 1527 | 37.8
318.15 K, x2 = 0 | 1325.2 | 2.76
318.15 K, x2 = 0.2042 | 1406.7 | 4.13
318.15 K, x2 = 0.27 | 1426.7 | 4.62
318.15 K, x2 = 0.3564 | 1448.6 | 5.5
318.15 K, x2 = 0.4343 | 1464.7 | 6.68
318.15 K, x2 = 0.4992 | 1476 | 8.04
318.15 K, x2 = 0.5552 | 1484.1 | 9.55
318.15 K, x2 = 0.6389 | 1493.8 | 12.51
318.15 K, x2 = 0.714 | 1501 | 16
318.15 K, x2 = 0.7774 | 1506.1 | 19.7
318.15 K, x2 = 0.8495 | 1510.8 | 24.7
318.15 K, x2 = 0.9302 | 1514.9 | 31.6

CCCC[n+]1ccn(C)c1.F[B-](F)(F)F + CNC(C)=O
x1 = 1
Conditions | speed of sound [m/s] | viscosity [mPa·s]
298.15 K | 1565.8 | 98.9
303.15 K | 1554.5 | 76.3
308.15 K | 1542.7 | 58.4
313.15 K | 1530.5 | 46.2
318.15 K | 1518 | 38.7
